Measured values from ChEMBL document CHEMBL1201862, “PubChem BioAssay data set” (2004).
Counter-ions that a name gives are not always drawn. The source made the active and inactive calls.

Assays:
[1] = inhibitors of intracellular T. cruzi replication, confirmation, NIH3T3 host cells, beta-gal luminescence (AID 2044); format: functional, cell-based;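 also: intracellular parasites grown in NIH/3T3 mouse fibroblasts as host cells; luminescent beta-galactosidase reporter signal from transgenic T. cruzi replicating inside host cells; inhibitors lower the luminescence signal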
[2] = Luminescence Cell-Based Dose Response HTS to Identify Inhibitors of 5'UTR Stem-Loop Driven Prion Protein mRNA Translation in H4 Neuroglioblastoma Cells. [Related pubchem assays: 1827 (Project Summary), 1813 (Primary HTS)]; format: functional
Protein RecA = biological target: T1, Protein RecA (Mycobacterium tuberculosis, UniProt P9WHJ3); assay: Fluorescence Cell-Free Homogeneous Dose Retest to Identify Inhibitors of RecA-Intein Splicing Activity. [Related pubchem assays (depositor defined):AID2097, AID2223, AID489010, AID492950]; format: functional
T1 sequence (P9WHJ3 whole entry): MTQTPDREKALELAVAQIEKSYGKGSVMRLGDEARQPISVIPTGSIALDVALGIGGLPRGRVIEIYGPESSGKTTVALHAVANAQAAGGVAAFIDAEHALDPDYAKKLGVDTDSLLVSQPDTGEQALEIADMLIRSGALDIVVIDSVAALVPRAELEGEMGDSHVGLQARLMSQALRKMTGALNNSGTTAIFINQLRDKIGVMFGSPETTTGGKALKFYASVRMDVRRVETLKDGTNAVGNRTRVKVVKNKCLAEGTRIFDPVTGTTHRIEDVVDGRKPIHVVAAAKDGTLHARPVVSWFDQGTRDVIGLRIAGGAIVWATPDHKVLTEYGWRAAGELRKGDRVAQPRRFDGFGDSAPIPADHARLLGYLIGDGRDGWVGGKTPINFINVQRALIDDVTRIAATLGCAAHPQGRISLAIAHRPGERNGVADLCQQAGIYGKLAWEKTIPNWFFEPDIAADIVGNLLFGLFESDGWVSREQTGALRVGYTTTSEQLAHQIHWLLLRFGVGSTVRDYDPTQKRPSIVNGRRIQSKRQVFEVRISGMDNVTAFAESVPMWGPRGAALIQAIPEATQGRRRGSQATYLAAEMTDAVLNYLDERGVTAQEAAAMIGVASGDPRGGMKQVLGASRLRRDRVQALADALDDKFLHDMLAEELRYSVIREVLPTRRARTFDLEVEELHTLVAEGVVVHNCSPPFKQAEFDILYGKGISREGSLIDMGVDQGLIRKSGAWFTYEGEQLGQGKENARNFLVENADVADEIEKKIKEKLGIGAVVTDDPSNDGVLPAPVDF

[3] = test system: Streptococcus sp. 'group A'; assay: growth inhibition of control SK(-) GAS strain, dose response, counter-screen for streptokinase expression inhibitor project, luminescence, kanamycin, BacTiterGlo, confirmation (AID 1900); format: functional, organism-based
[4] = biological target: T2, Apoptotic protease-activating factor 1 (Homo sapiens, UniProt O14727); format: functional
T2 sequence (O14727 whole entry): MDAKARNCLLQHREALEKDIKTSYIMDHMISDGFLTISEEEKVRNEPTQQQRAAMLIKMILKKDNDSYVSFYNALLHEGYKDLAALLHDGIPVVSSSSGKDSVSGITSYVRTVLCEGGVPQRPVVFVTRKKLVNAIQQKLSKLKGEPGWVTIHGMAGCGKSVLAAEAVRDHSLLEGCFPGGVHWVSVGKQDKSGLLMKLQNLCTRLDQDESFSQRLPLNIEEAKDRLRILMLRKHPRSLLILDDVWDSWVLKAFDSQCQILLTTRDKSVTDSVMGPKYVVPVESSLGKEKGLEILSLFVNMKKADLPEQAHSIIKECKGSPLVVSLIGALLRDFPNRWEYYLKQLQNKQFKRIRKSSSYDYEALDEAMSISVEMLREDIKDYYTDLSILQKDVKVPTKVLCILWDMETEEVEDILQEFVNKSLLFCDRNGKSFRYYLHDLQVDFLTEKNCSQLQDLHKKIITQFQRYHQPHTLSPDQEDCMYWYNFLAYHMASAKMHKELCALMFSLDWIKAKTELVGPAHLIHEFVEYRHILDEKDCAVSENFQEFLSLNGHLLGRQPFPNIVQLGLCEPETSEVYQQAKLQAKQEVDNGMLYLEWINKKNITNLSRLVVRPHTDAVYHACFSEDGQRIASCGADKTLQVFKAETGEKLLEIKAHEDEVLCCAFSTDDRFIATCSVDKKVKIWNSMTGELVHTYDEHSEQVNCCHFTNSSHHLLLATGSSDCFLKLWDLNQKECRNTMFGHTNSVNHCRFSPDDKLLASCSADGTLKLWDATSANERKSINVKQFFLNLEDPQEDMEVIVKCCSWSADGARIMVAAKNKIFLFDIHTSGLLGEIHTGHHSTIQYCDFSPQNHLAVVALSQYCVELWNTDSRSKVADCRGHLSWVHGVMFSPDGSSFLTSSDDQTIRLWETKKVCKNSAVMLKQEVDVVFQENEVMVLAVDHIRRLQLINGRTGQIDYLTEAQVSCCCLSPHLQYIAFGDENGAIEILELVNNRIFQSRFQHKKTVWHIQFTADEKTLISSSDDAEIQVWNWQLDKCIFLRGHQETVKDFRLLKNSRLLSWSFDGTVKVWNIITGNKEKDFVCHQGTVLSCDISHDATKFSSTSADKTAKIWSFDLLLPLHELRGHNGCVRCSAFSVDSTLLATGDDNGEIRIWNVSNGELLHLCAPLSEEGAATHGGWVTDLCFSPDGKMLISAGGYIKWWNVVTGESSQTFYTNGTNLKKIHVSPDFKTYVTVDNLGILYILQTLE

[5] = cytotoxicity toward NIH3T3 fibroblasts, dose response, counter-screen, cell-based, ATP luminescence, mouse fibroblasts (AID 2010); format: functional;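 also: cells exposed to compound for about 90 hours before reading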
[6] = inhibitors of firefly luciferase expression or activity, dose response, H4 neuroglioma cells, luminescence (AID 1990); format: functional, cell-based
[7] = biological target: T3, Replicative DNA helicase DnaB (Mycobacterium tuberculosis, UniProt P9WMR3); assay: DnaB intein splicing inhibitors, dose response, biochemical, cell-free fluorescence (AID 449749); format: functional
T3 sequence (P9WMR3 whole entry): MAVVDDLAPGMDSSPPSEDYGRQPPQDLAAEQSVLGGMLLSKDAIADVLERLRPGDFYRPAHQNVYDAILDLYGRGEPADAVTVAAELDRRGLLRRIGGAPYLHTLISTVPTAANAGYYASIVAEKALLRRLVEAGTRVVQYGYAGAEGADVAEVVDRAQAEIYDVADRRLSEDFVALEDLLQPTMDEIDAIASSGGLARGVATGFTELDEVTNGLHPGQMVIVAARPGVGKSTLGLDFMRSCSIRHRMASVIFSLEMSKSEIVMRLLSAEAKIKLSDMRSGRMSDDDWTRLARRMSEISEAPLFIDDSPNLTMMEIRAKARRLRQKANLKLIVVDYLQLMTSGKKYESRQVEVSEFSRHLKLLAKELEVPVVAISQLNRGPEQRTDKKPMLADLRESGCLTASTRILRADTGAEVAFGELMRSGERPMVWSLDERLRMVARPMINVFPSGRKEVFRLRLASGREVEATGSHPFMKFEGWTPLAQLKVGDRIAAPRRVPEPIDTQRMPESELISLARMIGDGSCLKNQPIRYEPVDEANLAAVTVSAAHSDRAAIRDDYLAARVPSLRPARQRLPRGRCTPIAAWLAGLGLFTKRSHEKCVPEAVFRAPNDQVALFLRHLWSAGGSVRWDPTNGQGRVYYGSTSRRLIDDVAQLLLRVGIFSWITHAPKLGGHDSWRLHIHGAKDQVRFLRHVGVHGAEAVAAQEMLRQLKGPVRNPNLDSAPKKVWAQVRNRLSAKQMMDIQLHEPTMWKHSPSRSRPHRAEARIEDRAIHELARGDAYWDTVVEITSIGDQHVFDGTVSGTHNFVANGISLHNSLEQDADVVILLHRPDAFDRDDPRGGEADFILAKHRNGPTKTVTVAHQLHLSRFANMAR

[8] = inhibitors of SNCA 5'UTR-driven reporter translation, confirmation, H4 neuroglioma cells, luminescence (AID 1988); format: functional, cell-based
Streptococcus = assay: Group A Streptococcus viability loss, dose response, counter-screen for streptokinase expression inhibitor project, luminescence, BacTiterGlo (AID 1915); format: functional, organism-based;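 also: potency for reduction of bacterial viability or growth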
[9] = Artemis endonuclease inhibitor potency, dose response, biochemical, fluorescence intensity (AID 720701); format: functional;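 also: Artemis endonuclease enzyme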
[10] = HCT116 cell viability decrease, GSK3B pretreatment – CellTiter-Glo, IC50, dose response (AID 1117339); format: functional; conditions: HCT-116
[11] = SNU-C1 cell viability reduction, dose response, CellTiter-Glo luminescence (AID 1117323); format: functional, cell-based
[12] = cytotoxicity toward HT-29 cells – cell-based, CellTiter-Glo luminescence, IC50, dose response (AID 1117330); format: functional
[13] = Glucagon-like peptide 1 release potency, NCI-H716 cell line, dose-response, half-maximal inhibitory concentration (AID 1117344); format: functional, cell-based
[14] = RKO cell viability reduction, dose response, CellTiter-Glo luminescence (AID 1117322); format: functional
[15] = cytotoxicity toward Colo320 cells – cell-based, CellTiter-Glo luminescence, IC50, dose response (AID 1117334); format: functional; conditions: COLO 320
[16] = CellTiter-Glo luminescent dose response of DLD-1 viability loss (AID 1117352); format: functional
[17] = cytotoxicity toward HCT116 cells – cell-based, CellTiter-Glo luminescence, IC50, dose response (AID 1117332); format: functional; conditions: HCT-116
[18] = Concentration-dependent survival of SW480 colon cancer line, luminescence detection with CellTiter-Glo, half-maximal inhibitory concentration (AID 1117338); format: functional
[19] = half-maximal inhibitory concentration for glucagon-like peptide-1 release, STC-1 cell line, dose-response (AID 1117345); format: functional, cell-based
[20] = Late-stage results from the probe development effort to identify antagonists of arginine vasopressin receptor 1a (AVPR1a): fluorescence-based cell-based dose response AVPR1a inhibition assay.; format: functional
Vasopressin V2 receptor = Vasopressin V2 receptor (Homo sapiens, UniProt P30518); assay: Late-stage results from the probe development effort to identify antagonists of arginine vasopressin receptor 1a (AVPR1a): fluorescence-based cell-based dose response AVPR2 inhibition counterscreen assay.; format: functional
Chain of Vasopressin V2 receptor (P30518 whole entry): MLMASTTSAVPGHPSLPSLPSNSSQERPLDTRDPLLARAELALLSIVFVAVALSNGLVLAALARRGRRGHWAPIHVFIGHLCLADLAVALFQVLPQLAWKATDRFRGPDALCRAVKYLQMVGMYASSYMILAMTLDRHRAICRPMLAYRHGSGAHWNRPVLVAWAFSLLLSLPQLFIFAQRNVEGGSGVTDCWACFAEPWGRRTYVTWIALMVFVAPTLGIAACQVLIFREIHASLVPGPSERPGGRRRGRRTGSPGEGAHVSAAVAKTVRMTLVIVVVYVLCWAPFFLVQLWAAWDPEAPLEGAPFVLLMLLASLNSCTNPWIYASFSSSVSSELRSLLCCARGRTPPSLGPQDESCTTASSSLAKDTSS

[21] = Late-stage results from the probe development effort to identify antagonists of arginine vasopressin receptor 1a (AVPR1a): fluorescence-based cell-based dose response OXTR inhibition counterscreen assay.; format: functional
Vasopressin V1b receptor = Vasopressin V1b receptor (Homo sapiens, UniProt P47901); assay: Late-stage results from the probe development effort to identify antagonists of arginine vasopressin receptor 1a (AVPR1a): fluorescence-based cell-based dose response AVPR1b inhibition counterscreen assay.; format: functional
Chain of Vasopressin V1b receptor (P47901 whole entry): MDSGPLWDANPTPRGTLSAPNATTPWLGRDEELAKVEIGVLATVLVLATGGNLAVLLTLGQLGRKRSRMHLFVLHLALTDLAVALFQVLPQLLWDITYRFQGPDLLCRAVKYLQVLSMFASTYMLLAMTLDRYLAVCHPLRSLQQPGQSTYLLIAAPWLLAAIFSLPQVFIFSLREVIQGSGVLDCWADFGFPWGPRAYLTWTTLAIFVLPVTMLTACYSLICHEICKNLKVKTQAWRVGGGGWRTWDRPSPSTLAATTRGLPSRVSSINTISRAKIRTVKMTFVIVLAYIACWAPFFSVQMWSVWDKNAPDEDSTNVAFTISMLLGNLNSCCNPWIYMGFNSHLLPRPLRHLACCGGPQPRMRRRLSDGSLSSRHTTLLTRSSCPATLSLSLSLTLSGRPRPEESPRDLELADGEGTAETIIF

[22] = fibronectin fibrillogenesis inhibitors in fibroblasts, dose response, AH1F cells, Alexa488-fibronectin fluorescence, cherry-pick, set 2 (AID 1117283); format: functional, cell-based
Large T antigen = Large T antigen (Simian virus 40, UniProt P03070); format: functional, Betapolyomavirus macacae;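 also: Confirmatory-stage PubChem screen for compounds that inhibit SV40 T antigen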
Chain of Large T antigen (P03070 whole entry): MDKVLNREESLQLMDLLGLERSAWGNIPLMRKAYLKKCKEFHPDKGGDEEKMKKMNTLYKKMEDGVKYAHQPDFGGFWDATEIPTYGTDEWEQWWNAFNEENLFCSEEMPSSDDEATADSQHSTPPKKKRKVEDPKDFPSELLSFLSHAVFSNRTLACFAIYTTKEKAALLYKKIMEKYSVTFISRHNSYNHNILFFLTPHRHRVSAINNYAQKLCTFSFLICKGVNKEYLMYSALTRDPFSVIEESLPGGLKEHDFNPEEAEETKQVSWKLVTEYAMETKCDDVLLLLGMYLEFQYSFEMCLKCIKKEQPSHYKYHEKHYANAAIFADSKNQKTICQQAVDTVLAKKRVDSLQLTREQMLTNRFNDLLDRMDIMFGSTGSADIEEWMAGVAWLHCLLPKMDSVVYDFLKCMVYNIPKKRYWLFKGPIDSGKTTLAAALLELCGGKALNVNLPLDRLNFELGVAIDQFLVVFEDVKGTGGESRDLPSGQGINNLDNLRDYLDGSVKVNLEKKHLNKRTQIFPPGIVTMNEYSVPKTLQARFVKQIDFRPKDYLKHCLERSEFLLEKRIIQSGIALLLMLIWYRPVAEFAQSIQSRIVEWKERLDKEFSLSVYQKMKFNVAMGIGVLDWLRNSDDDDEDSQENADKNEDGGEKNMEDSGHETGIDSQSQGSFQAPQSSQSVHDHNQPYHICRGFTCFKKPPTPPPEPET

Protein Tat = Protein Tat (Human immunodeficiency virus type 1 group M subtype B (isolate HXB2)(HIV-1), UniProt P04608); format: functional;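 also: tat binding to TAR RNA read out by fluorescence polarization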
Chain of Protein Tat (P04608 whole entry): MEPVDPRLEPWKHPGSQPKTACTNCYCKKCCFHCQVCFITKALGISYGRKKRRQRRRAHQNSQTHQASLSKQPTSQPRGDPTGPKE

[23] = biological target: NAD-dependent protein deacylase sirtuin-5, mitochondrial (Homo sapiens, UniProt Q9NXA8); assay: SIRT5 desuccinylase inhibitors, dose response, biochemical, fluorescence imaging, cherry-pick, set 5 (AID 720591);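 also: desuccinylation of succinyl peptide AMC substrate read as fluorescence after trypsin release; potency of inhibitors that lower fluorescence and may act on trypsin instead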
Chain of NAD-dependent protein deacylase sirtuin-5, mitochondrial (Q9NXA8 whole entry): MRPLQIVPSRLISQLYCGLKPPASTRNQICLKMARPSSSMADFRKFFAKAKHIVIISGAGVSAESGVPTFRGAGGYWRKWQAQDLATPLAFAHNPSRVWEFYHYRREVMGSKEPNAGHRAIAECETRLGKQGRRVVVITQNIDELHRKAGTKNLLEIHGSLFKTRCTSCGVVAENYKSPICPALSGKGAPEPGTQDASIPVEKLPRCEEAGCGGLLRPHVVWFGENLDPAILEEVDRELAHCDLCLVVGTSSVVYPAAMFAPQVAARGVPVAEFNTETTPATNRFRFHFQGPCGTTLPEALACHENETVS

[24] = Dose-response inhibition of insulin secretion in a rat insulinoma line at 5 mM glucose (AID 1117331); format: functional, cell-based; conditions: INS-1E

O=C1c2ccccc2C(=O)c2c1oc(C(F)(F)F)c2C(=O)c1ccccc1
EC50 [1]: 1.76 µM (active) | EC50 [2]: 7.26 µM (active) | EC50 (Protein RecA): 15.3 µM (active) | EC50 [3]: 2.11 µM (active) | IC50 [4]: 4.72 µM (active) | EC50 [5]: > 60 µM (not active) | EC50 [6]: 6.73 µM (active) | AC50 [7]: > 380 µM (inconclusive) | EC50 [8]: 3.37 µM (active) | EC50 (Streptococcus): 2.41 µM (active) | IC50 [9]: > 20 µM (inactive)

COCC(=O)O[C@]1(CCN(C)CCCc2nc3ccccc3[nH]2)CCc2cc(F)ccc2[C@@H]1C(C)C [MIBEFRADIL DIHYDROCHLORIDE]
IC50 [10]: 5.33 µM (inactive) | IC50 [11]: 5.44 µM (inactive) | IC50 [12]: 3.08 µM (active) | IC50 [13]: > 40 µM (inactive) | IC50 [14]: 6.72 µM (inactive) | IC50 [15]: 10.5 µM (inactive) | IC50 [16]: 7.26 µM (inactive) | IC50 [17]: 12.4 µM (inactive) | IC50 [18]: 4.54 µM (active) | IC50 [19]: 8.24 µM (inactive)

CCN(C(=O)N1CCN(c2ccccc2C)CC1)c1ccc(OC)cc1
IC50 [20]: 62 nM (active) | IC50 (Vasopressin V2 receptor): 6 µM (active) | IC50 [21]: 500 nM (active) | IC50 (Vasopressin V1b receptor): 8.81 µM (active)

C[C@H](O)C#Cc1ccc2c(c1)O[C@H](CN(C)C)[C@@H](C)CN([C@@H](C)CO)S2(=O)=O
AC50 [22]: > 70 µM (inactive)

NC(=O)c1ccc(N2CCN(c3ccc(O)cc3)CC2)c([N+](=O)[O-])c1
IC50 (Large T antigen): 8.31 µM (active) | IC50 (Protein Tat): > 100 µM (active)

COc1ccc(OCC(=O)Nc2ccc(C(=O)Nc3ccccc3C(=O)O)cc2)cc1
AC50 [23]: > 30 µM (inactive)

CCN(CC)CCOC(=O)C(C)(c1ccccc1)c1ccccc1 [APROFENE]
IC50 [24]: > 11.1 µM (inactive)
